The structures appear in SMILES notation. Bounds are passed on as bounds.

From patent US6890727B2, “Diagnostic assay for Alzheimer's disease: assessment of Aβ abnormalities” (The General Hospital Corporation, priority 1994, dated 2005) come the findings set out here.

In experiment [1] the test system is trypsin. In words: Trypsin activity, Z-Arg-amido-4-methylcoumarin fluorescent cleavage product. The experiment is classed as biochemical. The following applies: Zn^2+ up to 100 μM in TBS. How it is done: (§1) Tryptic Digestion of Aβ-Aβ1-40 (13.9 μg) was incubated with Zn^2+ ([…] in blocking buffer, 1 h, 37° C.) and then digested with trypsin (12 ng, 3 h, 37° C.). The reaction was stopped by adding SDS sample buffer containing phenylmethylsulfonyl fluoride (1 mM), boiling the samples (5 min), and applying the samples to Tris/Tricine gel electrophoresis and transfer. The blot was washed with EDTA, Coomassie-stained, incubated with ^65Zn^2+, individual bands were excised, assayed for ^65Zn^2+ binding, and N-terminal sequenced to confirm the identity of the digestion products. The effects of Zn^2+ (up to 100 μM in TBS) on the activity of trypsin, itself, were assayed by assay of Z-Arg-amido-4-methylcoumarin (Sigma) fluorescent cleavage product and determined to be negligible.

In experiment [2] the test system is trypsin. The experiment can be described thus: Tryptic digestion of Aβ after incubation with Zn2+. It counts as biochemical. The following applies: Zn^2+ 200 μM. How it is done:
as §1
(FIG. 4a) depicts a blot of tryptic digests of Aβ (13.9 μg) after incubation with increasing concentrations of zinc (lane labels, in micromolar), stained by Coomassie Blue. […] The migration of the low molecular size markers (STD) are indicated (in kilodaltons) on the right. (FIG. 4b) depicts ^65Zn^2+ binding to Aβ tryptic digestion products. The blot in 4a was incubated with ^65Zn^2+, the visible bands excised, and the bound counts for each band determined.

A further experiment addresses T1, Aβ (Homo sapiens, UniProt P05067).
T1 construct: purchased Sigma; Bachem (results also replicated with peptide from the Keck Laboratory, Yale); host or cells: chemical synthesis
In words: G50 gel filtration chromatography of Aβ in presence of metal ions or EDTA. The note with it: 25 μM total metal ion. As to the method: Aβ was stored in aliquots of 0.52 mg/ml in water at −20° C., then kept at 4° C. when thawed. Reagents were mixed without vortex mixing. The incubated Aβ was directly applied to a G50 SF (Pharmacia, Uppsala, Sweden) column (Bio-Rad Econo-Column, 30×0.7 cm) pre-equilibrated with metal salt solution or EDTA (50 μM) in TBS at 20° C. and eluted at 8 ml/h (Wiz peristaltic pump, Isco, Lincoln, Nebr.). Absorbance was measured at 254 and 214 nm (Type 6 optical unit, Isco). The amount of Aβ eluting at various peaks was estimated from the area under the curve. […] Because the sample eluted in a volume of approximately 15 ml, the average concentration of the peptide on the column was 0.8 μM.
To study the effects of protein blocking upon adsorption of β to the chromatography column, a Sephadex G50 SF column which had been characterized previously for Aβ behavior was eluted with 3% bovine serum albumin (BSA) in TBS (50 ml) and equilibrated with non-BSA-containing buffer, subsequent to repeating the Aβ experiments.
The elution points of molecular mass standards and relative assignments of Aβ peak elutions are indicated. Mass standards were blue dextran (2×10^6 kDa, V0=void volume), BSA (66 kDa), carbonic anhydrase (29 kDa), cytochrome c (12.4 kDa), and aprotinin (6.5 kDa). The mass of Aβ is 4.3 kDa. […] Data for experiments performed in the presence of copper were taken from 214 nm readings and corrected for comparison.
In general terms: Size exclusion chromatography separates by hydrodynamic size, large species first.

T1 sequence (P05067 672-711): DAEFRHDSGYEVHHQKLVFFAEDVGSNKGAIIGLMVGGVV

For the molecule `[Zn+2]` [Zn^2+, zinc], the “effects on the activity of trypsin itself” value with trypsin [1] is recorded as “negligible”. The “inhibition of Aβ hydrolysis by trypsin” value in the experiment on trypsin [2] was “complete inhibition”. Further, the “Aβ applied to the column that is eluted” value at Aβ was < 20%.
